Each structure is given as a SMILES string.

In series [1] the test system is normal osteoblast-like hFOB 1.19 cell line. Nature of the series: AlamarBlue cytotoxicity, RISE and nano-Ca@RISE, hFOB 1.19. The class given is cell-based, human. Conditions: for IC50: Homo sapiens. As for the experimental part: (§1) Cell culture methods. The MDA-MB-231 cell line was incubated with DMEM, 1% Pen-Strep, and 10% FBS at 37° C. in 5% CO2. The hFOB 1.19 cell line was incubated with 1:1 DMEM:F-12, 0.3 mg/mL G418, and 10% FBS at 34° C. in 5% CO2. Cell passages were performed weekly at 80% of cell confluency, media was exchanged twice a week.
(§2) Cell treatments. Both cell lines were treated with RISE (control) and nano-Ca@RISE (experimental). […]. Both cell lines (MDA-MB-231 and hFOB 1.19) were seeded in 96 well plates at 2.5×10^5 cell/mL. The cells were incubated for 24 h at 37° C. (MDA-MB-231) and 34° C. (hFOB 1.19), respectively. After the initial incubation period, both cell lines were treated with 100 μL of the RISE solutions previously prepared, and incubation was performed for 24, 48, and 72 h at the respective incubation temperatures. For both cell lines, media (MDA-MB-231: DMEM, Pen-Strep) and (hFOB 1.19: DMEM, F-12, G418) were used with control groups. AlamarBlue® assay was utilized to determine cell proliferation, for this, 10% of AlamarBlue® solution in PBS was prepared. Finally, the media was removed from the 96 well plates, 100 μL of 10% AlamarBlue® solution was added, and the cells were incubated for 4 h at the same previously mentioned conditions. After the AlamarBlue® assay, the fluorescence (λexc=560 nm, λem=590 nm) was evaluated employing an Infinite M200 PRO Tecan Microplate Reader. […]. The nonlinear regression method using Graph Pad Prism 8 was applied to fit the dose-response curves (% cell live vs concentration) and determined the IC50 values for RISE.
(§3) […]. Treatments at these concentrations were carried out at 24, 48, and 72 h for RISE and nano-Ca@RISE. The cell seeding and AlamarBlue® assay were completed as described above for the IC50 determination in both cell lines. […]. All experiments were performed in triplicates and the data was statistically treated using mean, standard deviation, and the coefficient of variation percentage (% CV).
(§4) Cell culture methods for the hFOB 1.19 cell line. This cell line was grown in 1:1 mixture of Ham's F12 Medium Dulbecco's Modified Eagle's Medium accompanied with 10% FBS and 0.3 mg/ml of geneticin (G418), incubated at 34° C. in 5% CO2. Cell passage and cell treatment were performed at 80% of cell confluency. The completed growth media was exchanged every two days.
(§5) Cell seeding. The MDA-MB-231 and hFOB 1.19 cell lines were seeded in 96 well plates at a density of 2.5×10^5 cells/mL, incubation was carried out for 24 h at 37° C. for MDA-MB-231 and 34° C. for osteoblast hFOB 1.19, in 5% CO2. The experiments were conducted in triplicates, three 96 well plates were made for each treatment period (24, 48, and 72 h).
(§6) Cell treatment. To determine the half-maximal inhibitory concentration (IC50), for both cell lines, two-fold serial dilutions of RISE (0-200 μM) were prepared. To assess the relative cell live (% RCL) were employed selected […] (50, 45, 40, and 35 μM) of RISE and nano-Ca@RISE for MDA-MB-231 and hFOB 1.19 cell lines. For this, after the seeding, 100 μL of RISE and nano-Ca@RISE were used to treat the cells. The control groups were treated with just media. Both cell lines were incubated for 24, 48, and 72 h after RISE and nano-Ca@RISE solutions were added.
(§7) AlamarBlue@assay. For both cell lines, after the 24, 48, and 72 h of treatment, the media was removed from the 96 well plates. Subsequently, 100 μL of 10% AlamarBlue® solution was added and incubation was carried out for 4 h. The fluorescence (λexc=570 nm, λem=590 nm) was measured employing an Infinite M200 PRO Tecan Microplate Reader. […]. The IC50 curves and the % RCL values were plotted using the Graph Pad Prism 8 program.
A general note: The colour change of resazurin is a common sign of viable cells or microbes.

Experiment in series [2]: as above
Conditions: human, hFOB 1.19 osteoblast cells, hFOB 1.19, read-out: Relative cell viability (% RCL). The series is classed as cell-based, human. As for the experimental part:
as §1, §2, §3, §4, §5, §6, §7

As for `O=P(O)(O)C(O)(Cc1cccnc1)P(=O)(O)O` [RISE, Monosodium risedronate hemipentahydrate], the IC50 in series [1] (24 h), in series [1] (48 h) and in series [1] (72 h) was greater than 200 µM throughout. Moreover, in series [1] (hFOB 1.19, 35 and 40 μM, 24, 48, 72 h), the cell death result is given as “no significant cell death”. Moreover, the “% RCL” value in series [1] (hFOB 1.19, 45 and 50 μM, time not stated) is reported as roughly 100%. The viability at 24 h, 35 µM in series [2] (35 μM, 24 h) worked out at 100 ± 1%. In addition, the viability at 48 h, 35 µM in series [2] (35 μM, 48 h) is 101%. Moreover, the viability at 72 h, 35 µM in series [2] (35 μM, 72 h) came out at 100 ± 2%. In addition, in series [2] (40 μM, 24 h), the viability at 24 h, 40 µM was 100 ± 1%. Moreover, the viability at 48 h, 40 µM in series [2] (40 μM, 48 h) came to 100%. The viability at 72 h, 40 µM in series [2] (40 μM, 72 h) amounted to 100 ± 1%. Further, in series [2] (45 μM, 24 h), the viability at 24 h, 45 µM is 100 ± 1%. The viability at 48 h, 45 µM in series [2] (45 μM, 48 h) is 100 ± 1%. Also, the viability at 72 h, 45 µM in series [2] (45 μM, 72 h) was found to be 99 ± 2%. In addition, in series [2] (50 μM, 24 h), the viability at 24 h, 50 µM was 99 ± 1%. The viability at 48 h, 50 µM in series [2] (50 μM, 48 h) was determined as 96 ± 4%. Moreover, the viability at 72 h, 50 µM in series [2] (50 μM, 72 h) is 98 ± 1%.

For orientation: IC50 means the concentration that inhibits the measured activity by half. As usually defined, the viability is a read-out of living cells in per cent, often relative to untreated cells.

The record behind these values is patent US20250296942A1, “Phosphonate-Based Coordination Complexes and Methods of Preparation and Use Thereof” (University of Puerto Rico, priority 2021, published 2025).
